Positions of bridges follow the written chain, without caps; N, C: chain ends. Non-standard residues stand in square brackets, D forms with d. No end group written: not given here.
Experiments:
fibroblasts = experiment: Whole cell bead binding assay, fibroblasts; conditions: peptide on beads
[1] = test system: primary bladder cancer cells from patients; experiment: Whole cell bead binding assay, primary bladder cancer cells from patients; parameters: species or system human; conditions: beads coated with PLZ4; fresh bladder cancer specimens
Method: (§1) Four bladder cancer cell lines including 5637 (HTB-9), SCaBER, TCCSUP (HTB-5), and T24 (HTB-4) were purchased from the American Type Culture Collection (Manassas, Va.). The isolation, characterization and maintenance of normal urothelial cells was previously described in detail (Bagai, et al., J Biol Chem, (2002) 277: 23828-23837). Normal peripheral blood mononuclear cells were prepared by using the Ficoll-Paque gradient method from peripheral blood of healthy donors. Bladder cancer tissue obtained from cystectomy was cut into pieces, digested with collagenase at 37° C. for 1-2 hours per the manufacturer's protocol, and filtered through a 40-μm strainer to make single cell suspension. Tumor cells were then isolated with Ficoll-Paque gradient method (800 g, 30 min at 4° C.). Informed consent was obtained from each patient or healthy donor before specimens were collected.
The beads were washed extensively with double-distilled water and phosphate-buffered saline (PBS) before screening. […]
The cell surface molecules on established cell lines in culture may not be the same as those molecules on primary bladder cancer cells. It was assessed if PLZ4 could bind to bladder cancer cells from patients. […]

[2] = test system: peripheral blood mononuclear cells (PBMC); experiment: Whole cell bead binding assay, PBMC; parameters: species or system human; conditions: peptide on beads
Method: as §1
The beads were washed extensively with double-distilled water and phosphate-buffered saline (PBS) before screening. Bladder cancer cells and normal urothelial cells were detached from culture dishes with trypsin/EDTA or a Detach kit (PromoCell, Heidelberg, Germany), washed with their corresponding culture medium, resuspended at 10^6 cells/ml and incubated with OBOC beads in Petri dishes in a humidified CO2 incubator at 37° C. with shaking (60 rpm). […]

K9TCC-PU = experiment: Binding affinity by PLZ4-biotin / avidin-HRP on fixed K9TCC-PU cells; parameters: species or system canine; conditions: restated in b239 without cell line, read-out: Kd50
Method: (§2) FIG. 8A-B. Binding affinity and biological effects of PLZ4 against canine TCC cell lines. A. Binding affinity of PLZ4 against K9TCC-PU and K9TCC-PU-In. Twenty thousands of K9TCC-PU and K9TCC-PU-In were seeded in 96 well plates. After culture for 24 hours, cells were fixed and incubated with different concentrations of PLZ4-biotin for 1.5 hours following avidin-HRP for another 1 hour. Cells treated with avidin-HRP only were served as background control. The color was developed using TMB substrate and read by ELISA readers. The experiment was performed in triplicates and repeated for 3 times. The mean value of the 3 experiments were shown. B. Biological effects of PLZ4 on canine TCC cell lines. Ten thousand K9TCC-PU-In and K9TCC-PU cells were seeded in the 96 well plates and treated with increasing concentrations of PLZ4 or PBS for 2 days. The cell proliferation assay was assessed by WST-8 assay per manufacturer's protocol. Cells treated with PBS were used as 100% control. Each group was performed in triplicate, repeated for 3 times. Mean values at each concentration are presented.
(§3) To further quantify the binding affinity, K9TCC-PU and K9TCC-PU-In cells were seeded in 96 well plates, fixed, and incubated with increasing concentrations of PLZ4-biotin followed by avidin-HRP. […]

K9TCC-PU-In = experiment: Binding affinity by PLZ4-biotin / avidin-HRP on fixed K9TCC-PU-In cells; parameters: species or system canine; conditions: restated in b239 without cell line, read-out: Kd50
Method: as §2, §3

[3] = test system: bladder TCC cell lines 5637, T24 and TCCSUP; experiment: Whole cell bead binding assay, bladder TCC cell lines; parameters: species or system human; conditions: peptide on OBOC beads; 5637, T24, TCCSUP
Method: The beads were washed extensively with double-distilled water and phosphate-buffered saline (PBS) before screening. Bladder cancer cells and normal urothelial cells were detached from culture dishes with trypsin/EDTA or a Detach kit (PromoCell, Heidelberg, Germany), washed with their corresponding culture medium, resuspended at 10^6 cells/ml and incubated with OBOC beads in Petri dishes in a humidified CO2 incubator at 37° C. with shaking (60 rpm). Beads bound by cells appeared as rosettes with a central bead covered by a layer(s) of cells under a microscope. The positive beads were picked with a pipette under inverted microscope, treated with Quanidine HCl (8M, 20 min) to remove cells and proteins on beads surface, and underwent a second round of incubation with the same cells to confirm the binding. Only those beads with cell bindings at both rounds were sent for the amino acid sequencing as previously described (Peng, et al., Nat Chem Biol, (2006) 2: 381-389).
Whole cell bead binding assay was used to screen libraries for peptides that bind bladder cancer cell cultures (FIG. 1). Approximately 150,000 library beads (peptides) were screened against each of 4 bladder cancer cell lines (three transitional cell carcinoma (TCC) lines: T24, TCCSUP and 5637, and one squamous cell line SCaBER). […]

cQDGRMGFc ([dC]QDGRMGF[dC]; disulfide 1-9 (inferred)) [PLZ4, bladder cancer-specific ligand peptide]
binding to fibroblasts (fibroblasts): did not bind | binding to primary bladder cancer cells from patients [1]: could bind to cells from all 5 fresh bladder cancer specimens | binding to peripheral blood mononuclear cells [2]: did not bind | Kd (K9TCC-PU): 21.3 µM | Kd (K9TCC-PU-In): 10.3 µM | binding to bladder TCC cell lines [3]: bound to all three bladder TCC cell lines
